In brackets after ≈: the same amount, converted by molar mass.

Results on three compounds are retold here after patent US11976076B1 (priority 2023, dated 2024).

For this test, the system named is multidrug-resistant (MDR) strains of Mycobacterium tuberculosis. Kind of test: microbe, parasite or virus in culture. The note with it: 192 h, read-out: Anti-tubercular activity (MIC) MDR-TB. It is filed as cell-based.
Take `O=c1[nH]c(=O)c2c(-c3c[nH]c4ccccc34)nc(=S)[nH]c2[nH]1` [Compound 4a, 5-(1H-Indol-3-yl)-7-thioxo-7,8-dihydropyrimido[4,5-d]pyrimidine-2,4(1H,3H)-dione]: the MIC amounted to 16 µg/mL (≈ 51.4 µM).
In the case of `O=c1[nH]c(=S)[nH]c2[nH]c(=S)nc(-c3c[nH]c4ccccc34)c12` [Compound 4b, 5-(1H-Indol-3-yl)-2,7-dithioxo-2,3,7,8-tetrahydropyrimido[4,5-d]pyrimidin-4(1H)-one], the MIC is 8 µg/mL (≈ 24.4 µM).
With `Cn1c(=O)c2c(-c3c[nH]c4ccccc34)nc(=S)[nH]c2n(C)c1=O` [Compound 4c, 5-(1H-Indol-3-yl)-1,3-dimethyl-7-thioxo-7,8-dihydropyrimido[4,5-d]pyrimidine-2,4(1H,3H)-dione] the figure was 4 µg/mL (≈ 11.8 µM).
